Measurements taken from EP4640213A1, “ORAL PHARMACEUTICAL PREPARATION COMPRISING SODIUM-GLUCOSE COTRANSPORTER-2 INHIBITOR AND ANGIOTENSIN II RECEPTOR BLOCKER” (THPharm Corp., priority 2022, dated 2024).

Legend:
[1] = Drug-drug compatibility test under accelerated stability conditions; assay type: physicochemical
Procedure: Specifically, after storing a mixture of ARB and SGLT-2 inhibitor for 4 weeks under accelerated stability test conditions (40 ± 2°C/75 ± 5% relative humidity), changes in the contents of each ingredient and flexible substance and changes in properties (color, agglomeration, etc.) were analyzed. Olmesartan, Valsartan, and Telmisartan were used as ARBs, and Empagliflozin, Dapagliflozin (Dapagliflozin propanediol monohydrate), and Canagliflozin were used as SGLT-2 inhibitors. [Table 4] […] To observe the properties and viscosity of the main ingredients, 10 g of the mixtures of ARBs and SGLT-2 inhibitors stored for 1, 2, 3, and 4 weeks were taken and exposed to 100 ml of purified water at room temperature for 10 minutes, and then the properties and viscosity were identified.

A549 cells = assay: Cell survival rate (MTT) in A549 cells; assay type: cell-based; conditions: up to a concentration of 25 µM, 24 and 48 hours, FIGS. 1A, 1B
Procedure: (§1) To screen angiotensin II receptor blockers for use in combinations of angiotensin II receptor blockers (ARBs) and sodium-glucose cotransporter-2 (SGLT-2) inhibitors for the treatment of heart failure, cell survival rates were evaluated.
(§2) Specifically, A549 cells were obtained from the Korean Cell Line Bank (KCLB) and subcultured using a RPMI-1640 medium supplemented with 10% fetal bovine serum (FBS) and 1% Penicillin, and MDCK cells were obtained from ATCC and subcultured using a DMEM medium supplemented with 10% FBS. 200 µl each of the A549 cells and MDCK cells incubated in an incubator under 37°C and 5% CO2 conditions were dispensed at 2 × 10^4 cells/well in a 96-well plate, and then a control group was treated with 100 µl of the medium, and experimental groups were treated with 1.25, 25, 50, and 100 µM of Telmisartan or olmesartan, respectively. After 24 and 48 hours, all of the wells were treated with 50 µl each of a 2 mg/ml MTT reagent and incubated in an incubator for 3 hours, and then each well was added with […] of DMSO, wrapped in foil, stirred for 30 minutes at room temperature, and the absorbance was measured at 570 nm to obtain the cell survival rate.

MDCK cells = assay: Cell survival rate (MTT) in MDCK cells; assay type: cell-based; conditions: up to a concentration of 25 µM, 24 and 48 hours, FIGS. 2A, 2B
Procedure: as §1, §2

[2] = test system: angiotensin converting enzyme (ACE); assay: ACE mRNA expression (RT-PCR) in LPS inflammation-induced H9c2 cells; assay type: cell-based, rat; conditions: for mRNA expression of ACE: alone administration, FIGS. 5 and 6
Procedure: Specifically, H9c2 cells as a […] cardiac cell line were obtained and used from the Korea Cell Line Bank (KCLB 40071, Korea) and incubated and prepared in a DMEM medium supplemented with 10% FBS and 1% antibiotic-antimycotic (10 units/ml penicillin, 100 µg/ml streptomycin, 0.25 µg/ml amphotericin) under 37°C and 5% CO2 conditions.
To confirm the effect on ACE activity, the prepared H9c2 cells were treated with 2.5 µg/ml of Lipopolysaccharide (LPS), which was 2.5 times more than the amount used in conventional inflammation-related experiments, to induce inflammation, thereby setting the optimized conditions for confirming ACE expression. LPS inflammation-induced H9c2 cells were treated with 10, 25, and 50 µM Telmisartan or olmesartan, respectively, and the H9c2 cells were harvested for ELISA assay. The harvested cells were treated with 1 ml of an RIPA buffer and stirred at 4°C for 30 minutes to extract proteins. Thereafter, the proteins were centrifuged at 4°C and 10,000 rpm for 20 minutes, and the supernatant was transferred to a sterilized tube and stored at - 80°C for use in the ELISA assay.
Specifically, LPS inflammation-induced H9c2 cells in Experimental Example 1-2 were treated with 10 or 25 µM Telmisartan and 10 or 50 µM olmesartan, and then treated with 200 µl of chloroform together with 1 ml of TRIZol (Sigma, USA), gently mixed, and separated for 10 minutes, and then centrifuged at 4°C and 10,000 rpm for 10 minutes. After centrifugation, only the supernatant from the tube was taken and transferred to a new sterile tube, and the supernatant was treated with 500 µl of isopropanol to precipitate RNA. The precipitated RNA was centrifuged at 4°C, 10,000 rpm for 10 minutes, and then the supernatant except for the pellets in the tube was fully removed, and the RNA pellets were treated with 500 µl of 75% ethyl alcohol and thoroughly washed. The washed pellets were centrifuged at 4°C, 10,000 rpm for 5 minutes, and then the supernatant except the pellets was fully removed. The tube containing the pellets from which the supernatant had been cleanly removed was treated with diethyl pyrocarbonate (DEPC)-water and stored at - 80°C for use in an RT-PCR experiment.
RT-PCR was performed by synthesizing cDNA from mRNA using an RT-PCR kit containing DNA polymerase, buffer, dNTP, and tracking dye, and then using ACE primers in Table 1 under the conditions in Table 2 for 35 cycles. The PCR products were electrophoresed on a […] agarose gel, identified using a UV transilluminator, and expressed as normalized to GAPDH for quantitative comparison.
In order to confirm the effect of each combination or single substance on the mRNA expression of ACE, the experimental samples in Table 3 were treated to H9c2 cells induced with LPS inflammation in Experimental Example 1-2, respectively, and then the mRNA expression of ACE was evaluated in the same manner as in Experimental Example 1-3.

[3] = test system: angiotensin converting enzyme (ACE); assay: ACE ELISA assay (ACE protein expression) in LPS inflammation-induced H9c2 cells; assay type: cell-based, rat; conditions: FIG. 3
[4] = 4-week repeated oral administration toxicity; assay type: in vivo, Sprague-Dawley rats; conditions: oral daily for 4 weeks
Procedure: During the test, general symptom observation, blood test, and body weight measurement were performed, and after the observation period ended, the rats were euthanized and autopsied.

[5] = Single oral administration pharmacokinetic test; conditions: beagle dogs
Procedure: The control and test drugs were administered orally once by a single tablet, and were crossed over (4 × 4 cross over) four times at one-week intervals. Fasting was performed from 5 to 6 pm the day before administration. The control and test drugs were administered into the tongue root, and then administered with approximately 15 ml of water, and feed was provided approximately 4 hours after administration. Blood was collected at 0 (blank), 0.25, 0.5, 0.75, 1, 1.5, 2, 3, 4, 5, 6, 8, 12, and 24 hours (14 times) after administration of the control and test drugs, and left by a 7-day drug-free period.

[6] = ARB ingredient (first value of cell), Acceleration 1 week, 40 ± 2°C/75 ± 5% relative humidity
[7] = ARB ingredient (first value of cell), Acceleration 2 week
[8] = ARB ingredient (first value of cell), Acceleration 3 week
[9] = ARB ingredient (first value of cell), Acceleration 4 week
[10] = ARB ingredient (first value of cell), Initial
[11] = color, agglomeration, etc., Initial
[12] = SGLT-2 inhibitor ingredient (second value of cell), Acceleration 1 week
[13] = SGLT-2 inhibitor ingredient (second value of cell), Acceleration 2 week
[14] = SGLT-2 inhibitor ingredient (second value of cell), Acceleration 3 week
[15] = SGLT-2 inhibitor ingredient (second value of cell), Acceleration 4 week
[16] = SGLT-2 inhibitor ingredient (second value of cell), Initial
[17] = 15 µM high-concentration groups
[18] = low-concentration groups of 2.5 µM to 10 µM

flexible substance ([1]; Acceleration 1 week) | property ([1]; Acceleration 1 week) | flexible substance ([1]; Acceleration 2 week) | property ([1]; Acceleration 2 week) | flexible substance ([1]; Acceleration 3 week) | property ([1]; Acceleration 3 week) | flexible substance ([1]; Acceleration 4 week) | property ([1]; Acceleration 4 week) | flexible substance ([1]; Initial) | property [1, 11] | Compound | mRNA expression of ACE [2, 18] | other results
0.1 or less | suitable | 0.1 or less | suitable | 0.1 or less | suitable | 0.1 or less | suitable | 0.1 or less | suitable | CCCc1nc2c(C)cc(-c3nc4ccccc4n3C)cc2n1Cc1ccc(-c2ccccc2C(=O)O)cc1 [Com. Ex. 16, Telmisartan] | – | content [1, 6]: 100.1%; content [1, 7]: 100%; content [1, 8]: 100%; content [1, 9]: 100%; content [1, 10]: 100.1%
1.0 or less | suitable | 1.0 or more | suitable | 5.0 or more | unsuitable | 5.0 or more | unsuitable | 0.1 or less | suitable | OC[C@H]1O[C@@H](c2ccc(Cl)c(Cc3ccc(O[C@H]4CCOC4)cc3)c2)[C@H](O)[C@@H](O)[C@@H]1O [Com. Ex. 17, Empagliflozin] | – | content [1, 12]: 97.3%; content [1, 13]: 95.1%; content [1, 14]: 85.4%; content [1, 15]: 80.2%; content [1, 16]: 99.9%
– | – | – | – | – | – | – | – | – | – | CCCc1nc(C(C)(C)O)c(C(=O)O)n1Cc1ccc(-c2ccccc2-c2nnn[nH]2)cc1 [olmesartan] | – | cell survival rate (A549 cells): no effect on cell survival rate; cell survival rate (MDCK cells): no effect on cell survival rate
– | – | – | – | – | – | – | – | – | – | CCCc1nc2c(C)cc(-c3nc4ccccc4n3C)cc2n1Cc1ccc(-c2ccccc2C(=O)O)cc1 [Comparative Example 14, Telmisartan] | – | mRNA expression of ACE [2, 17]: decrease below the normal level
0.1 or more | suitable | 0.1 or more | suitable | 0.1 or more | suitable | 0.1 or more | suitable | 0.1 or less | suitable | CCCCC(=O)N(Cc1ccc(-c2ccccc2-c2nnn[nH]2)cc1)[C@H](C(=O)O)C(C)C [Com. Ex. 20, Valsartan] | – | content [1, 6]: 99.4%; content [1, 7]: 99.2%; content [1, 8]: 99%; content [1, 9]: 98.7%; content [1, 10]: 99.7%
– | – | – | – | – | – | – | – | – | – | CCCc1nc2c(C)cc(-c3nc4ccccc4n3C)cc2n1Cc1ccc(-c2ccccc2C(=O)O)cc1 [Telmisartan, 4'-[(1,4'-dimethyl-2'-propyl[2,6'-bi-1H-benzimidazol]-1'-yl)methyl][1,1'-biphenyl]-2-carboxylic acid] | did not decrease to a normal level | cell survival rate (A549 cells): no effect on cell survival rate; cell survival rate (MDCK cells): no effect on cell survival rate; ACE expression inhibition effect ([3]; 25 µM treatment group): the best; ACE expression inhibition effect ([3]; all treatment concentrations (10, 25, 50 µM)): superior to that of olmesartan; mRNA expression ([2]; 25 µM treatment group, FIG. 4): mostly inhibited; mRNA expression inhibition effect ([2]; all treatment concentrations, FIG. 4): superior to that of olmesartan; body weight measurement [4]: a tendency for inhibiting weight gain; Cmax of Telmisartan (T/R ratio) (in the presence of Dapagliflozin, 80 mg / 10 mg, 90% confidence interval 0.99 to 1.43): approximately 1.19 times; difference in AUCall between groups in the single administration group and the combined administration group [5]: 1.0 times
1.0 or less | unsuitable | 5.0 or more | unsuitable | 5.0 or more | unsuitable | 5.0 or more | unsuitable | 0.1 or less | suitable | Cc1ccc([C@@H]2O[C@H](CO)[C@@H](O)[C@H](O)[C@H]2O)cc1Cc1ccc(-c2ccc(F)cc2)s1 [Com. Ex. 21, Canagliflozin] | – | content [1, 12]: 95.2%; content [1, 13]: 89.2%; content [1, 14]: 85.2%; content [1, 15]: 80.1%; content [1, 16]: 99.5%
– | – | – | – | – | – | – | – | – | – | OC[C@H]1O[C@@H](c2ccc(Cl)c(Cc3ccc(O[C@H]4CCOC4)cc3)c2)[C@H](O)[C@@H](O)[C@@H]1O [Empagliflozin, (1S)-1,5-anhydro-1-C-[4-chloro-3-[[4-[[(3S)-tetrahydro-3-furanyl]oxy]phenyl]methyl]phenyl]-D-glucitol] | did not decrease to a normal level | –
– | – | – | – | – | – | – | – | – | – | OC[C@H]1O[C@@H](c2ccc(Cl)c(Cc3ccc(O[C@H]4CCOC4)cc3)c2)[C@H](O)[C@@H](O)[C@@H]1O [Comparative Example 8, Empagliflozin] | – | mRNA expression of ACE [2, 17]: decrease below the normal level
– | – | – | – | – | – | – | – | – | – | CCOc1ccc(Cc2cc([C@@H]3O[C@H](CO)[C@@H](O)[C@H](O)[C@H]3O)ccc2Cl)cc1 [Dapagliflozin, (1S)-1,5-anhydro-1-C-{4-chloro-3-[(4-ethoxyphenyl)methyl]phenyl}-D-glucitol] | did not decrease to a normal level | GLU ([4]; blood test): decreased; Cmax of Dapagliflozin (T/R ratio) (in the presence of Telmisartan, 90% confidence interval 0.93 to 1.12): approximately 1.02 times; AUC of Dapagliflozin (T/R ratio) (in the presence of Telmisartan, 90% confidence interval 0.97 to 1.03): approximately 1.00 times; difference in AUCall between groups in the single administration group and the combined administration group [5]: 1.0 times
